# Assay results: US10798941B2, “Microbiocidal oxadiazole derivatives” (SYNGENTA PARTICIPATIONS AG, priority 2016, dated 2020)
# Several values for one entry are separate records, joined by “and”; a condition that tells them apart may be missing. Equal values may be shown once.
# Tests used:
# [1] = test system: Puccinia recondita f. Sp. Tritici; test: Puccinia recondita f. sp. tritici / wheat / leaf disc preventative (brown rust); assay type: in vivo; details: foliar, 168 h, 200 ppm in the applied formulation, wheat leaf segments cv. Kanzler, preventative, inoculated 1 day after application, assessed 7 to 9 days after application, vs untreated, read-out: disease control
# Summary of the method: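 Wheat cv. Kanzler leaf segments on agar were sprayed with formulated compound in water, then inoculated with spores 1 day later. Incubated at 19° C, 75% rh, 12 h light/12 h dark; percent disease control versus untreated scored 7 to 9 days after application.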
# [2] = test system: Glomerella Lagenarium (Colletotrichum Lagenarium); test: Glomerella lagenarium (Colletotrichum lagenarium) liquid culture / cucumber / preventative (anthracnose); assay type: cell-based; details: Colletotrichum orbiculare; 20 ppm in the applied formulation; liquid culture in PDB, 24° C., inhibition of growth measured photometrically 3 to 4 days after application, vs untreated; read-out: disease control
# Summary of the method: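 Conidia from cryogenic storage were mixed into potato dextrose broth. This was added to compound diluted from DMSO into 0.025% Tween20, tested at 20 ppm. Plates were incubated in the dark at 24 °C and 96% relative humidity, and growth was read photometrically after 2–7 days as % activity versus untreated check.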
# Phakopsora pachyrhizi = Phakopsora pachyrhizi / soybean / leaf disc preventative (Asian soybean rust); assay type: in vivo; details: foliar, 288 h, 200 ppm in the applied formulation, soybean leaf disks, inoculated one day after application, assessed 12 to 14 days after application, vs untreated, read-out: disease control
# Summary of the method: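 Read-out is percent disease control relative to untreated check discs, assessed once untreated discs show adequate disease, 12 to 14 days after application. Compounds, tested at 200 ppm in the applied formulation, are sprayed onto soybean leaf discs one day before inoculation with a spore suspension.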
# [3] = test system: Puccinia recondita f. Sp. Tritici; test: Puccinia recondita f. sp. tritici / wheat / leaf disc curative (brown rust); assay type: in vivo; details: foliar, 144 h, 200 ppm in the applied formulation, wheat leaf segments cv. Kanzler, applied 1 day after inoculation, assessed 6 to 8 days after application, vs untreated, read-out: disease control
# Summary of the method: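 Read-out is percent disease control relative to untreated segments, assessed 6 to 8 days after treatment once check disease is adequate. Kanzler wheat leaf segments on agar receive fungal spores, then test compound (DMSO stock diluted in 0.025% Tween20 or water) 1 day later, under 19° C and 75% relative humidity.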
SMILES,melting point,pest or weed control at 200 ppm [1] [%],inhibition of growth at 20 ppm [2] [%],pest or weed control at 200 ppm (Phakopsora pachyrhizi) [%],pest or weed control at 200 ppm [3] [%]
"CC(C)OC(=O)c1cn(Cc2ccc(-c3noc(C(F)(F)F)n3)cc2)nn1 [Compound 1.278, isopropyl 1-[[4-[5-(trifluoromethyl)-1,2,4-oxadiazol-3-yl]phenyl]methyl]triazole-4-carboxylate]",146 to 148 °C,≥ 80,≥ 80,≥ 80,
"CCOC(=O)c1cn(Cc2ccc(-c3noc(C(F)(F)F)n3)cc2)nn1 [Compound 1.276, ethyl 1-[[4-[5-(trifluoromethyl)-1,2,4-oxadiazol-3-yl]phenyl]methyl]triazole-4-carboxylate]",134 to 136 °C,≥ 80,≥ 80,≥ 80,
"O=C(O)c1cn(Cc2ccc(-c3noc(C(F)(F)F)n3)cc2)nn1 [Compound 1.271, 1-[[4-[5-(trifluoromethyl)-1,2,4-oxadiazol-3-yl]phenyl]methyl]triazole-4-carboxylic acid]",208 to 210 °C,≥ 80,,,≥ 80
"CCOC(=O)c1cnn(Cc2ccc(-c3noc(C(F)(F)F)n3)nc2)c1 [Compound 1.269, ethyl 1-[[6-[5-(trifluoromethyl)-1,2,4-oxadiazol-3-yl]-3-pyridyl]methyl]pyrazole-4-carboxylate]",88 to 90 °C,≥ 80,≥ 80,,≥ 80
"COC(=O)c1ncn(Cc2ccc(-c3noc(C(F)(F)F)n3)cc2)n1 [Compound 1.37, methyl 1-[[4-[5-(trifluoromethyl)-1,2,4-oxadiazol-3-yl]phenyl]methyl]-1,2,4-triazole-3-carboxylate]",174 to 177.2 °C,≥ 80,≥ 80,,
"FC(F)(F)c1nc(-c2ccc(Cn3cc(COc4ccccc4)nn3)cc2)no1 [Compound 1.28, 3-[4-[[4-(phenoxymethyl)triazol-1-yl]methyl]phenyl]-5-(trifluoromethyl)-1,2,4-oxadiazole]",103.2 to 104.9 °C,≥ 80,≥ 80,≥ 80,
"N#Cc1ncn(Cc2ccc(-c3noc(C(F)(F)F)n3)c(F)c2)n1 [Compound 1.255, 1-[[3-fluoro-4-[5-(trifluoromethyl)-1,2,4-oxadiazol-3-yl]phenyl]methyl]-1,2,4-triazole-3-carbonitrile]",120 to 123 °C,≥ 80,≥ 80,,≥ 80
"COCCNC(=O)c1cnn(Cc2ccc(-c3noc(C(F)(F)F)n3)cc2)c1 [Compound 1.250, N-(2-methoxyethyl)-1-[[4-[5-(trifluoromethyl)-1,2,4-oxadiazol-3-yl]phenyl]methyl]pyrazole-4-carboxamide]",132 to 142 °C,≥ 80,≥ 80,,
"FC(F)(F)c1nc(-c2ccc(Cn3cc(C4CCCC4)nn3)cc2)no1 [Compound 1.24, 3-[4-[(4-cyclopentyltriazol-1-yl)methyl]phenyl]-5-(trifluoromethyl)-1,2,4-oxadiazole]",117.9 to 118.8 °C and 117 to 119 °C,≥ 80,≥ 80,≥ 80,
"COc1cc(-c2noc(C(F)(F)F)n2)ccc1Cn1cncn1 [Compound 1.97, 3-[3-methoxy-4-(1,2,4-triazol-1-ylmethyl)phenyl]-5-(trifluoromethyl)-1,2,4-oxadiazole]",102 to 106 °C,,≥ 80,,≥ 80

# Second part, led by results:
melting point,SMILES,pest or weed control at 200 ppm [1] [%],inhibition of growth at 20 ppm [2] [%],pest or weed control at 200 ppm (Phakopsora pachyrhizi) [%],pest or weed control at 200 ppm [3] [%]
119.2 to 119.8 °C,"CS(=O)(=O)c1ncnn1Cc1ccc(-c2noc(C(F)(F)F)n2)cc1 [Compound 1.294, 3-[4-[(5-methylsulfonyl-1,2,4-triazol-1-yl)methyl]phenyl]-5-(trifluoromethyl)-1,2,4-oxadiazole]",≥ 80,≥ 80,,≥ 80
114.4 to 115.2 °C,"C[S+]([O-])c1ncn(Cc2ccc(-c3noc(C(F)(F)F)n3)cc2)n1 (stereo not drawn) [Compound 1.297, 3-[4-[(3-methylsulfinyl-1,2,4-triazol-1-yl)methyl]phenyl]-5-(trifluoromethyl)-1,2,4-oxadiazole]",≥ 80,≥ 80,,≥ 80
108 to 110 °C,"CCOC(=O)c1cnn(CCc2ccc(-c3noc(C(F)(F)F)n3)cc2)c1 [Compound 1.310, ethyl 1-[2-[4-[5-(trifluoromethyl)-1,2,4-oxadiazol-3-yl]phenyl]ethyl]pyrazole-4-carboxylate]",≥ 80,,≥ 80,
75 to 85 °C,"FC(F)(F)c1nc(-c2ccc(Cn3cc(C=NOCc4ccccc4)cn3)cc2)no1 [Compound 1.289, N-benzyloxy-1-[1-[[4-[5-(trifluoromethyl)-1,2,4-oxadiazol-3-yl]phenyl]methyl]pyrazol-4-yl]methanimine]",≥ 80,≥ 80,,
54.5 to 56.6 °C,"FC(F)(F)c1nc(-c2ccc(CN3CCSCC3)cc2)no1 [Compound 1.302, 3-[4-(thiomorpholino-methyl)phenyl]-5-(trifluoromethyl)-1,2,4-oxadiazole]",≥ 80,≥ 80,,≥ 80
88 to 90.4 °C,"CSc1ncn(Cc2ccc(-c3noc(C(F)(F)F)n3)cc2)n1 [Compound 1.299, 3-[4-[(3-methylsulfanyl-1,2,4-triazol-1-yl)methyl]phenyl]-5-(trifluoromethyl)-1,2,4-oxadiazole]",≥ 80,≥ 80,,≥ 80
205 to 207 °C,"COc1ccc(NC(=O)c2cn(Cc3ccc(-c4noc(C(F)(F)F)n4)cc3)nn2)cc1 [Compound 1.281, N-(4-methoxyphenyl)-1-[[4-[5-(trifluoromethyl)-1,2,4-oxadiazol-3-yl]phenyl]methyl]triazole-4-carboxamide]",≥ 80,≥ 80,,≥ 80
145.4 to 146.4 °C,"CS(=O)(=O)c1ncn(Cc2ccc(-c3noc(C(F)(F)F)n3)cc2)n1 [Compound 1.296, 3-[4-[(3-methylsulfonyl-1,2,4-triazol-1-yl)methyl]phenyl]-5-(trifluoromethyl)-1,2,4-oxadiazole]",≥ 80,≥ 80,,≥ 80
71.2 to 73.7 °C,"C[S+]([O-])c1ncnn1Cc1ccc(-c2noc(C(F)(F)F)n2)cc1 (stereo not drawn) [Compound 1.295, 3-[4-[(5-methylsulfinyl-1,2,4-triazol-1-yl)methyl]phenyl]-5-(trifluoromethyl)-1,2,4-oxadiazole]",≥ 80,≥ 80,,≥ 80
72 to 73.2 °C,"CSc1ncnn1Cc1ccc(-c2noc(C(F)(F)F)n2)cc1 [Compound 1.298, 3-[4-[(5-methylsulfanyl-1,2,4-triazol-1-yl)methyl]phenyl]-5-(trifluoromethyl)-1,2,4-oxadiazole]",≥ 80,≥ 80,,≥ 80
60 to 95 °C,"CCCON=Cc1cnn(Cc2ccc(-c3noc(C(F)(F)F)n3)cc2)c1 [Compound 1.287, N-propoxy-1-[1-[[4-[5-(trifluoromethyl)-1,2,4-oxadiazol-3-yl]phenyl]methyl]pyrazol-4-yl]methanimine]",≥ 80,≥ 80,,≥ 80
222 to 224 °C,"CNC(=O)c1cnnn1Cc1ccc(-c2noc(C(F)(F)F)n2)cc1 [Compound 1.291, N-methyl-3-[[4-[5-(trifluoromethyl)-1,2,4-oxadiazol-3-yl]phenyl]methyl]triazole-4-carboxamide]",,,,≥ 80
80 to 120 °C,"CCON=Cc1cnn(Cc2ccc(-c3noc(C(F)(F)F)n3)cc2)c1 [Compound 1.286, N-ethoxy-1-[1-[[4-[5-(trifluoromethyl)-1,2,4-oxadiazol-3-yl]phenyl]methyl]pyrazol-4-yl]methanimine]",≥ 80,≥ 80,≥ 80,
